The subject of data set [1] is VEEV TC-83. Put plainly: microbe, parasite or virus in culture. The format is cell-based. The settings on record: Venezuelan equine encephalitis virus, Vero 76, read-out: IC50 against TC-83 1º.
Data set [2] can be described thus: in vitro. The note with it: African green monkey.
The test system of data set [3] is VEEV TC-83. Put plainly: microbe, parasite or virus in culture. The format is cell-based. The settings on record: Venezuelan equine encephalitis virus.
In data set [4] the test system is VEEV TC-83. Put plainly: microbe, parasite or virus in culture. The format is cell-based. The settings on record: Venezuelan equine encephalitis virus, Vero 76.
The subject of data set [5] is VEEV V3526. Put plainly: microbe, parasite or virus in culture. The note with it: Venezuelan equine encephalitis virus. The format is cell-based.
Data set [6] in a line: in vitro. The settings on record: mouse; for fraction unbound: plasma.
The nature of data set [7]: in vivo. The note with it: mouse, ip.
Data set [8] in a line: in vitro. The settings on record: PAMPA. In general terms: PAMPA measures passive passage across an artificial lipid membrane.
Data set [9] relates to VACV-LREV. In words: microbe, parasite or virus in culture. The class given is cell-based, vaccinia virus (western reserve).
A short description of data set [10]: in vitro. The settings on record: dog, MDCK-MDR1.
The subject of data set [11] is MDR1. Put plainly: in vitro. The note with it: dog, MDCK-MDR1.
Data set [12] relates to VEEV TC-83. The class given is cell-based, Venezuelan equine encephalitis virus.
Data set [13] concerns VEEV TC-83. The format is cell-based, Venezuelan equine encephalitis virus. The source holds these as a separate data set.
Data set [14] deals with WEEV (VR-70). In words: microbe, parasite or virus in culture. The format is cell-based. The note with it: Western equine encephalitis virus, Vero, 72 h, read-out: Antiviral Activity (IC50), WEEV.
In data set [15] the test system is Ebola virus (Zaire)-GFP. Put plainly: microbe, parasite or virus in culture. The format is cell-based.
Data set [16] is described as follows: in vitro. The note with it: mouse, plasma.
The conditions of data set [17]: mouse, in vivo.
Data set [18] has as its system CHIKV. In words: microbe, parasite or virus in culture. The format is cell-based, Chikungunya virus.
Data set [19] has as its system EEEV strain FL91. In words: microbe, parasite or virus in culture. The class given is cell-based, Eastern equine encephalitis virus.
A short description of data set [20]: in vitro. The settings on record: microsomes.
The test system of data set [21] is VSV-EGFP. Put plainly: microbe, parasite or virus in culture. The class given is cell-based, vesicular stomatitis virus.
The subject of data set [22] is VEEV TC-83. The class given is cell-based, Venezuelan equine encephalitis virus. This is another data set of the same source.
The conditions of data set [23]: 16 hr.
The conditions of data set [24]: microsomes.
The subject of data set [25] is VEEV TrD. In words: microbe, parasite or virus in culture. The format is cell-based. The note with it: Venezuelan equine encephalitis virus.
In data set [26] the test system is VEEV TC-83 RNA. The format is cell-based, Venezuelan equine encephalitis virus.
Data set [27] in a line: physchem.
Data set [28] deals with RSV (strain Long). In words: microbe, parasite or virus in culture. The class given is cell-based, human respiratory syncytial virus.
Data set [29] deals with VEEV TrD. The class given is cell-based, Venezuelan equine encephalitis virus.
Data set [30] deals with VEEV TC-83 proteins. The format is cell-based, Venezuelan equine encephalitis virus.
In data set [31] the test system is VEEV TC-83. The note with it: mouse, in vivo; cited from earlier work.
Setting [32] is: Vero 76, read-out: IC50 against TC-83 2º.

“Also recorded” adds a separate entry of the source. Where two headings read alike, the source gives them in different places. Some results are limits rather than exact numbers.

Usually IC50 stands for the point on the concentration scale where inhibition reaches its midpoint. In general, inhibition refers to the change of the read-out against control, counted positive when it falls. As a reminder, the fraction unbound is free concentration divided by total concentration. In general, Papp refers to a coefficient for how fast a substance crosses the barrier. As a reminder, the Papp A→B is the apparent permeability from the apical to the basolateral side of a cell layer. Broadly, the Papp B→A is how fast a substance crosses the layer from the basolateral side. By efflux ratio is commonly meant the permeability from basolateral to apical divided by that in the opposite direction, in the common usage. What is called half-life is how long it takes for the measured level to halve. In general, microsomal CLint refers to the rate of metabolic loss divided by the concentration. Usually Aqueous solubility stands for the concentration that dissolves in the medium under given conditions. The term solubility denotes the dissolved amount per volume that the medium holds.

For `CCOC(=O)c1ccc(Nc2nc(=O)c3cccnc3s2)cc1` [compound 1259240], the IC50 came out at 6.32 µM in data set [1], 7.07 µM in data set [3] (setting [32]) and 10.8 µM in data set [5] (read-out: IC50 against V3526). In data set [2], this molecule came in with a CC50 of more than 25 µM. In data set [4], this molecule returned an inhibition at 20 µM of 49%.

`CCN1CCN(Cc2nc3ccc([N+](=O)[O-])cc3c(=O)n2-c2ccccc2F)CC1` [CID15997213] displayed a recovery in data set [6] of 89%. The figures for the unbound share (fraction unbound) in data set [6] (Mean plasma fraction bound), in [6] (Mean plasma fraction unbound) and in [6] (protein binding) were 0.324, 0.324 and 0.68, respectively. This molecule also returned an MTD in data set [7] not below 800 mg/kg. In [8], this molecule gave a Papp of 420 nm/s. Moreover, the 50% inhibitory concentration (IC50) is 1.91 µM in data set [1]; more than 20 µM in [9] (Vaccinia virus Western Reserve, A549, 18 h, read-out: Antiviral Activity (IC50), VACV-LREV); 10 µM in data set [14]; more than 10 µM in data set [15] (Zaire ebolavirus, HeLa, 24 h, read-out: Antiviral Activity (IC50), Ebola virus (Zaire)-GFP); 1.3 µM in [3] (setting [32]); 0.84 µM in data set [3] (read-out: IC50, VEEV TC-83). In addition, the concentration for half-maximal inhibition (IC50) in data set [5] (read-out: Antiviral Activity (IC50), VEEV V3526) was 0.67 µM; in [5] (read-out: IC50, V3526) it was 0.32 µM; in data set [5] (read-out: IC50 against V3526), 1.01 µM; in data set [18] (Chikungunya virus, 72 h, read-out: Antiviral Activity (IC50), CHIKV), more than 50 µM; in [19] (Eastern equine encephalitis virus, Vero, 40 h, read-out: Antiviral Activity (IC50), EEEV), more than 20 µM; in data set [21] (Vesicular stomatitis virus, A549, 18 h, read-out: Antiviral Activity (IC50), VSV-EGFP), more than 20 µM. The IC50 was 0.48 µM in data set [25] (N2a, read-out: Antiviral Activity (IC50), VEEV TrD); 0.38 µM in data set [25] (Vero 76, read-out: Antiviral Activity (IC50), VEEV TrD); 0.36 to 0.48 µM in data set [25] (read-out: IC50, VEEV TrD); more than 50 µM in data set [28] (human respiratory syncytial virus, HEp-2, 120 h, read-out: Antiviral Activity (IC50), RSV). Moreover, in data set [9], the “Antiviral Activity (IC50), VACV-LREV” value was “No antiviral activity”. Also, in data set [2], the CC50 is more than 25 µM. In [10], this molecule showed an apical-to-basolateral permeability (Papp A→B) of 72 nm/s. In [10], this molecule gave an apparent permeability from basolateral to apical (Papp B→A) of 385 nm/s. Moreover, the efflux ratio in [11] worked out at 5.3. In [12], the “Virus production still occurring, of the maximum” value stood at 90%. Also, the “Progeny virus in titer reduction assay” value in [13] and in [29] was “No progeny virus was detected” in each case. Also, the “Antiviral Activity (IC50), Ebola virus (Zaire)-GFP” value in data set [15] was “No antiviral activity”. Moreover, the inhibition at 20 µM in data set [4] was 73%. The molecule also had a half-life in data set [16] of more than 4 h. Further, the “Acute toxicity, clinical signs” value in data set [17] is “no acute toxicity”. For the same molecule, the “Toxicity (body weight loss, adverse effects)” value in data set [17] was “No apparent toxicity”. Further, in data set [18], the “Antiviral Activity (IC50), CHIKV” value is given as “not inhibited”. The “Antiviral Activity (IC50), EEEV” value in data set [19] is “no activity”. The same molecule displayed a microsomal CLint in [20] of 31.4 µL/min/mg. In addition, the “Antiviral Activity (IC50), VSV-EGFP” value in [21] is reported as “No antiviral activity”. Moreover, the Plaque formation entry in [22] is “no visible plaques”. Also, the Aqueous solubility in data set [23] is listed as more than 100 µM. For the same molecule, the microsomal stability result in data set [24] was “good”. Moreover, in data set [26], the “Reduction in viral RNA levels as compared to the control” value is reported as > 8,000 fold. The molecule also came in with a solubility in [27] of more than 100 µM. For the same molecule, the “Antiviral Activity (IC50), RSV” value in data set [28] was “No antiviral activity”. Also, the “Viral protein level (western blot)” value in data set [30] is reported as “dramatic decrease in viral protein level; also recorded: not able to detect viral proteins”.

As to `O=C(Oc1ccc2ccccc2c1Br)N1CCCCCC1` [compound 2928803], the 50% inhibitory concentration (IC50) in data set [1] is 4.26 µM; in [3] (setting [32]) it was more than 50 µM; in data set [5] (read-out: IC50 against V3526), more than 50 µM. This molecule gave a CC50 in data set [2] of more than 25 µM. Besides, the inhibition at 20 µM in [4] was determined as 42.8%.

Take (−)-carbodine: in data set [31], the Survival is 50%.

For `O=C(Cc1cccs1)Nc1nc2c(s1)CCCC2` [compound 847035], the half-inhibitory concentration (IC50) in data set [1] was 6.38 µM; in data set [3] (setting [32]), 4.71 µM; in [5] (read-out: IC50 against V3526), 7.09 µM. The CC50 in [2] was more than 25 µM. The molecule further came in with an inhibition at 20 µM in data set [4] of 27.8%.

Consider `Clc1ccc2nnnc(-c3ccccc3)c2c1` [compound 902491], for which the results for the half-inhibitory concentration (IC50) in [1], in [3] (setting [32]) and in data set [5] (read-out: IC50 against V3526) were 9.71 µM, 3.45 µM and 6.12 µM, respectively. The CC50 in data set [2] is more than 25 µM. The inhibition at 20 µM in data set [4] amounted to 42.1%.

With `O=c1nc(Nc2ccc(OCc3ccccc3)cc2)sc2ncccc12` [compound 1258664], the values for the IC50 in data set [1], in data set [3] (setting [32]) and in data set [5] (read-out: IC50 against V3526) were 2.86 µM, 2.38 µM and 3.67 µM, respectively. Further, the CC50 in data set [2] was more than 25 µM. In [4], this molecule showed an inhibition at 20 µM of 63.2%.

(Values after paper PMC4072787 (PLoS Pathogens, 2014).)
